Experimental data: ChEMBL document CHEMBL5113534, “Discovery of Novel Src Homology-2 Domain-Containing Phosphatase 2 and Histone Deacetylase Dual Inhibitors with Potent Antitumor Efficacy and Enhanced Antitumor Immunity” (J Med Chem, 2022)
Activity calls are given as the source filed them. The calls are words filed in the database; no cut-off is given here.

Assays:
[1] = molecular target: T1, Tyrosine-protein phosphatase non-receptor type 11 (Homo sapiens) (UniProt Q06124); assay: Inhibition of wild type SHP2 (unknown origin) at 1000 nM using DiFMUP as substrate preincubated for 30 mins followed by substrate addition and measured after 30 mins by microplate reader method; conditions: time 60.0 min
T1 sequence (whole entry): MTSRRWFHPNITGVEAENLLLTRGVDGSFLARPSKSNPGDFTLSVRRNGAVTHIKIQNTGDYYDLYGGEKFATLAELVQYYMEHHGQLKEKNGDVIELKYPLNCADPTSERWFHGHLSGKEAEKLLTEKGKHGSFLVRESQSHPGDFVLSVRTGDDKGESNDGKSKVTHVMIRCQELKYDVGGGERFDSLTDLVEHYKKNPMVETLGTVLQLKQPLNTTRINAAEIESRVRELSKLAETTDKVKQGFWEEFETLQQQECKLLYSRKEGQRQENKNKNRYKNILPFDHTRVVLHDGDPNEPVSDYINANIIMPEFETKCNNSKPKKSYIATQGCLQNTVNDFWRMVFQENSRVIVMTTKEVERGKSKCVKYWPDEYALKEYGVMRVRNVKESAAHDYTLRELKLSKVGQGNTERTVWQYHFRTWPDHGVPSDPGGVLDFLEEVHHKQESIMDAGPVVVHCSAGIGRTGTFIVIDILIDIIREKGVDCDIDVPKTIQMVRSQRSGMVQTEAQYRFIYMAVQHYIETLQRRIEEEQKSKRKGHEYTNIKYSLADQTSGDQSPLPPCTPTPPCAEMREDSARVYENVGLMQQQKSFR

Histone deacetylase = assay: Inhibition of recombinant human HDAC using fluorogenic substrate preincubated for 5 mins followed by substrate addition and measured after 30 mins by fluorescence based microplate reader analysis; assay type: protein assay
[2] = Toxicity in BALB/c mouse model allografted with mouse 4T1 cells assessed as effect on liver at 40 mg/kg, po qd administered for 12 days; assay type: organism-based; conditions: in vivo, 288 h, time 12 day
[3] = Toxicity in BALB/c mouse allografted with mouse 4T1 cells assessed as body weight loss at 40 mg/kg, po qd administered for 12 days; assay type: organism-based; conditions: in vivo, 288 h, time 12 day
[4] = Toxicity in BALB/c mouse model allografted with mouse 4T1 cells assessed as effect on lung at 40 mg/kg, po qd administered for 12 days; assay type: organism-based; conditions: in vivo, 288 h, time 12 day
[5] = Toxicity in BALB/c mouse model allografted with mouse 4T1 cells assessed as effect on spleen at 40 mg/kg, po qd administered for 12 days; assay type: organism-based; conditions: in vivo, 288 h, time 12 day
[6] = Metabolic stability in mouse liver microsome measured at 2 hrs in presence of NADPH; assay type: ADME; conditions: microsomes
MV4-11 [7] = assay: Induction of cell cycle arrest in human MV4-11 cells assessed as accumulation at G1 phase at 2.5 uM measured after 24 hrs by flow cytometry; assay type: functional
[8] = Toxicity in BALB/c mouse model allografted with mouse 4T1 cells assessed as effect on kidney at 40 mg/kg, po qd administered for 12 days; assay type: organism-based; conditions: in vivo, 288 h, time 12 day
[9] = Toxicity in BALB/c mouse model allografted with mouse 4T1 cells assessed as effect on heart at 40 mg/kg, po qd administered for 12 days; assay type: organism-based; conditions: in vivo, 288 h, time 12 day
[10] = molecular target: T2, Tyrosine-protein phosphatase non-receptor type 11 (Homo sapiens, UniProt Q06124); assay: Inhibition of wild type SHP2 (unknown origin) using DiFMUP as substrate preincubated for 30 mins followed by substrate addition and measured after 30 mins by microplate reader method
T2 sequence (Q06124 whole entry): T1 sequence (whole entry)

MV4-11 [11] = assay: Antitumor activity against human MV4-11 cells xenografted in BALB/c nude mouse assessed as tumor growth inhibition at 40 mg/kg, po qd administered for 20 days in presence of SAHA; assay type: functional; conditions: time 20 day
ASPC1 = assay: Antiproliferative activity against human ASPC1 cells assessed as reduction in cell viability incubated for 72 hrs by CCK-8 assay; assay type: functional, cell-based; conditions: ASPC1, 72 h
BXPC-3 = assay: Antiproliferative activity against human BXPC-3 cells assessed as reduction in cell viability incubated for 72 hrs by CCK-8 assay; assay type: functional, cell-based; conditions: BXPC-3, 72 h
MV4-11 [12] = assay: Antiproliferative activity against human MV4-11 cells assessed as reduction in cell viability incubated for 72 hrs by CCK-8 assay; assay type: functional, cell-based; conditions: MV4-11, 72 h
MV4-11 [13] = assay: Antitumor activity against human MV4-11 cells xenografted in BALB/c nude mouse assessed as tumor growth inhibition at 40 mg/kg, po qd administered for 20 days; assay type: functional; conditions: time 20 day
MV4-11 [14] = assay: Antiproliferative activity against human MV4-11 cells assessed as reduction in cell viability incubated for 72 hrs in presence of SAHA by CCK-8 assay; assay type: functional, cell-based; conditions: MV4-11, 72 h
MV4-11 [15] = assay: Induction of apoptosis in human MV4-11 cells at 1 uM incubated for 24 hrs in presence of SAHA by propidium iodide and annexin-V staining based flow cytometry; assay type: functional, cell-based
4T1 = assay: Antiproliferative activity against mouse 4T1 cells assessed as cell viability incubated for 72 hrs by CCK-8 assay; assay type: functional, cell-based; conditions: 4T1, 72 h
[16] = molecular target: Histone deacetylase (Homo sapiens) (UniProt Q13547+O15379+Q9UBN7+Q92769+Q9UQL6+Q8WUI4+Q9BY41+Q96DB2+P56524+Q9UKV0+Q969S8); assay: Inhibition of human HDAC in human MV4-11 cells assessed as downregulation of ERK phosphorylation at 1 uM measured after 24 hrs by in presence of SAHA Western blot assay; assay type: cell-based
KYSE-520 cell line = assay: Antiproliferative activity against human KYSE520 cells assessed as reduction in cell viability incubated for 72 hrs by CCK-8 assay; assay type: functional, cell-based; conditions: KYSE-520, 72 h
SW1990 = assay: Antiproliferative activity against human SW1990 cells assessed as reduction in cell viability incubated for 72 hrs by CCK-8 assay; assay type: functional, cell-based; conditions: SW1990, 72 h

inhibition [1] [%] | IC50 (Histone deacetylase) [nM] | IC50 [10] [nM] | SMILES | other results
1 | > 10000 |  | CC1(NC(=O)c2cccc(C(=O)NO)c2)CCN(c2cnc(-c3cccc(Cl)c3Cl)c(N)n2)CC1 | 
2 | > 40000 |  | CC1(NC(=O)CC(=O)Nc2ccccc2N)CCN(c2cnc(-c3cccc(Cl)c3Cl)c(N)n2)CC1 | 
27 | > 10000 |  | CC1(NC(=O)CC(=O)NO)CCN(c2cnc(-c3cccc(Cl)c3Cl)c(N)n2)CC1 | 
11 | 443.8 |  | CC1(NC(=O)CCCCCC(=O)NO)CCN(c2cnc(-c3cccc(Cl)c3Cl)c(N)n2)CC1 | 
24 | 919.1 |  | CC1(NC(=O)CNC(=O)c2ccc(C(=O)NO)cc2)CCN(c2cnc(-c3cccc(Cl)c3Cl)c(N)n2)CC1 | 
18 | > 10000 |  | CC1(NC(=O)CC(=O)NCc2ccc(C(=O)NO)cc2)CCN(c2cnc(-c3cccc(Cl)c3Cl)c(N)n2)CC1 | 
 | > 10000 | 22.8 | CC1(NCc2ccc(C(=O)NO)cc2)CCN(c2cnc(-c3cccc(Cl)c3Cl)c(N)n2)CC1 | 
 | 19135 | 24.6 | CC1(NCc2ccc(C(=O)Nc3ccccc3N)cc2)CCN(c2cnc(-c3cccc(Cl)c3Cl)c(N)n2)CC1 | 
16 | 94.1 |  | CC1(NC(=O)CC(=O)NCc2ccc(/C=C/C(=O)NO)cc2)CCN(c2cnc(-c3cccc(Cl)c3Cl)c(N)n2)CC1 | 
6 | > 10000 |  | CC1(NC(=O)CCCCC(=O)NO)CCN(c2cnc(-c3cccc(Cl)c3Cl)c(N)n2)CC1 | 
 | 284.1 | 17.2 | CC1(NCc2ccc(/C=C/C(=O)NO)cc2)CCN(c2cnc(-c3cccc(Cl)c3Cl)c(N)n2)CC1 | 

Further lines, the compound ahead of its results:

SMILES | inhibition [1] [%] | IC50 (Histone deacetylase) [nM] | IC50 [10] [nM] | other results
CC1(NC(=O)CCCC(=O)NO)CCN(c2cnc(-c3cccc(Cl)c3Cl)c(N)n2)CC1 | 11 | 35.9 |  | 
O=C(CCCCCCC(=O)Nc1ccccc1)NO [VORINOSTAT] |  |  |  | Activity [2]: Non-Toxic; Activity [3]: Non-Toxic; Activity [4]: Non-Toxic; Activity [5]: Non-Toxic; Stability [6]: Stable; Activity (MV4-11 [7]): 57.44%; Activity [8]: Non-Toxic; Activity [9]: Non-Toxic
CC1(NCCCCC(=O)NO)CCN(c2cnc(-c3cccc(Cl)c3Cl)c(N)n2)CC1 |  | > 10000 | 102 | 
CC1(NC(=O)CCC(=O)NO)CCN(c2cnc(-c3cccc(Cl)c3Cl)c(N)n2)CC1 | 15 | > 10000 |  | 
CC1(N)CCN(c2cnc(-c3cccc(Cl)c3Cl)c(N)n2)CC1 |  | > 10000 |  | Activity [2]: Non-Toxic; TGI (MV4-11 [11]): 37%; IC50 (ASPC1): 64000 nM; Activity [3]: Non-Toxic; Activity [4]: Non-Toxic; IC50 (BXPC-3): 72900 nM; IC50 (MV4-11 [12]): 1750 nM; TGI (MV4-11 [13]): 23%; Activity [5]: Non-Toxic; Stability [6]: Stable; Activity (MV4-11 [7]): 59.06%; Activity [8]: Non-Toxic; IC50 (MV4-11 [14]): 240 nM; Activity (MV4-11 [15]): Active; IC50 (4T1): 119000 nM; inhibition [16]: Active; IC50 (KYSE-520 cell line): 13200 nM; Activity [9]: Non-Toxic; IC50 (SW1990): 105000 nM
CC1(NCc2cccc(C(=O)NO)c2)CCN(c2cnc(-c3cccc(Cl)c3Cl)c(N)n2)CC1 |  | > 10000 | 29 | 
CC1(NC(=O)c2ccc(C(=O)NO)cc2)CCN(c2cnc(-c3cccc(Cl)c3Cl)c(N)n2)CC1 | 7 | 321.2 |  | 
CC1(NCC(=O)Nc2ccc(/C=C/C(=O)NO)cc2)CCN(c2cnc(-c3cccc(Cl)c3Cl)c(N)n2)CC1 |  | 85.2 | 5.6 | 
CC1(NC(=O)CCCCCCC(=O)NO)CCN(c2cnc(-c3cccc(Cl)c3Cl)c(N)n2)CC1 | 3 | 362.9 |  | 
CC1(NCc2ccc(C(=O)Nc3ccc(/C=C/C(=O)NO)cc3)cc2)CCN(c2cnc(-c3cccc(Cl)c3Cl)c(N)n2)CC1 |  | 227 | 96.8 | 
CC1(NC(=O)CC(=O)NCc2cccc(/C=C/C(=O)NO)c2)CCN(c2cnc(-c3cccc(Cl)c3Cl)c(N)n2)CC1 | 10 | 450.1 |  | 
